The source of these data is patent US8969570B2, “Beta-lactamase inhibitors” (priority 2012, dated 2015).

Structures can show the parent of a compound that is named as a salt.

What all share (format): cell-based
What all share (details): β-lactam (CXA-101/Ceftolozane or ceftazidime) fixed at 4 μg/mL; compared with Avibactam (comparator compound CCC)

In test [1] the test system is bacterial strains that express P99 β-lactamase (isogenic E. coli strain P99 AmpC). Nature of the test: Synergy MIC (sMIC) assay, P99 AmpC strain. The source says:
(§1) A set of β-lactamase expressing isogenic E. coli strains was constructed by cloning a β-lactamase gene into a customized derivative of pBR322 (GenBank Accession Number J01749) and transforming the engineered plasmids into E. coli. The NdeI restriction site within the plasmid backbone of pBR322 was removed to generate pBR322 ΔNdeI. The pBR322 ΔNdeI vector itself, minus the blaTEM-1 gene, was amplified using two primers: (1) pBR-Pbla 5′-[…]-3, SEQ ID 1, a primer with an engineered NdeI restriction site at the 3′ end of the blaTEM-1 promoter and (2) pBR-vec-1 5′-[…]-3′, SEQ ID 2, a primer with an engineered BamHI restriction site at the 3′ end of the blaTEM-1 open reading frame. The chloramphenicol resistance gene, cat, was generated by PCR amplification from pKD3 (GenBank Accession Number AY048742) using primers with an engineered NdeI restriction site at the 5′ end (Pbla-cat 5′-[…]-3′, SEQ ID 3) and an engineered BamHI restriction site at the 3′ end (Vec-1-cat 5′-[…]-3′, SEQ ID 4) of the resistance gene. The two PCR products, pBR322 ΔNdeI and cat were ligated together generating pBR-CBST (pBR322 ΔNdeI ΔTEM-1::cat Seq. ID 5) which retains both the pBR322 tetracycline resistance cassette, tetA, and the plasmid origin of replication but the blaTEM-1 gene was replaced by the cat gene.
(§2) Using this engineering strategy a number of plasmids producing β-lactamase genes from different classes (see below) were generated using synthetic genes with an engineered NdeI restriction site at the 5′ end and BamHI restriction site at the 3′ end of each gene (GenScript). Both the synthetic β-lactamase genes and cat gene were ligated into the NdeI/BamHI sites of the pBR322 ΔNdeI PCR product and transformed into electrocompetent E. coli ElectroMax DH10B (Invitrogen/Life Technologies). E. coli DH10B harboring the recombinant plasmids were selected on LB agar (supplemented with 25 μg/mL tetracycline) and single isolated colonies were then inoculated into 5 mL LB media (supplemented with 25 μg/mL tetracycline), and incubated at 37° C. with aeration (250 rpm) for 18 hrs. The cultures were frozen back at −80° C. in 20% glycerol. The DNA sequence of the cloned β-lactamase genes was confirmed. The β-lactamase gene expression in the recombinant E. coli strains was driven by the blaTEM-1 promoter in the pBR-CBST plasmid and was characterized by MIC profiling of the E. coli recombinant strains against comparator β-lactam/BLI combinations in broth microdilution assay.
(§3) The synergy MIC (sMIC) assay determines the concentration of the BLI required to potentiate the activity of a fixed concentration of a β-lactam antibiotic against β-lactamase producing bacterial strains. The experimental protocol was performed according to Clinical and Laboratory Standards Institute (CLSI) guidelines with modifications as described below (CLSI guidelines can be derived from the CLSI document M07-A9 published in January 2012: “Methods for Dilution Antimicrobial Susceptibility Tests for Bacteria That Grow Aerobically; Approved Standard-Ninth Edition”). The assay is set-up by serially diluting the BLI across 11 of the 12 wells in each row of a 96-well broth microdilution assay plate, adding the β-lactam at a fixed concentration to all wells in the assay plate, inoculating the assay plate with bacterial strains, and determining the lowest concentration of BLI required to inhibit overnight bacterial growth.
(§4) To prepare for MIC testing, frozen glycerol stocks of laboratory engineered, isogenic E. coli strains, which contain cloned β-lactamase expressing plasmids were used to streak for isolated colonies on rich, selective LB agar supplemented with 25 μg/mL tetracycline to maintain the plasmid. All strains were incubated at 37° C. for 18-24 hrs.
(§5) On the day of testing, primary cultures were started by scraping off 5-10 colonies from the tetracycline supplemented LB plates containing engineered strains. […]

Test [2] concerns bacterial strains that express OXA-15 β-lactamase (isogenic E. coli strain). Put plainly: Synergy MIC (sMIC) assay, OXA-15 strain.
Source text: as §1, §2, §3, §4, §5

In test [3] the test system is bacterial strains that express SHV-12 β-lactamase (isogenic E. coli strain). Put plainly: Synergy MIC (sMIC) assay, SHV-12 strain.
Source text: as §1, §2, §3, §4, §5

For test [4], the system named is bacterial strains that express KPC β-lactamase (isogenic E. coli strain KPC-2). Nature of the test: Synergy MIC (sMIC) assay, KPC strain.
Source text: as §1, §2, §3, §4, §5

Test [5] concerns bacterial strains that express CTX-M-15 β-lactamase (isogenic E. coli strain). Nature of the test: Synergy MIC (sMIC) assay, CTX-M-15 strain.
Source text: as §1, with “cat gene. […]” for “cat gene.”

As to `O=C1N2C[C@@H](CC[C@H]2c2nncs2)N1OS(=O)(=O)O` [Compound 300, (2S,5R)-7-oxo-2-(1,3,4-thiadiazol-2-yl)-1,6-diazabicyclo[3.2.1]octan-6-yl hydrogen sulfate], in test [1], the “activity against bacterial strains that express P99 β-lactamase relative to Avibactam (sMIC)” value is “as active as Avibactam”. Further, the “activity against bacterial strains that express OXA-15 β-lactamase relative to Avibactam (sMIC)” value in test [2] is listed as “more active than Avibactam”. Also, the “activity against bacterial strains that express SHV-12 β-lactamase relative to Avibactam (sMIC)” value in test [3] is “as active as Avibactam”. Moreover, the “activity against bacterial strains that express KPC β-lactamase relative to Avibactam (sMIC)” value in test [4] is “as active or more active than Avibactam”. Further, the “activity against bacterial strains that express CTX-M-15 β-lactamase relative to Avibactam (sMIC)” value in test [5] is “as active as Avibactam”.
